# Measured values reported in PubChem BioAssay AID248 (DTP/NCI, 2004).
# Where “and” joins values, the source holds several entries; their conditions need not be identical. Identical values can stand only once. Inconclusive results and toxic doses are left out.
# System: L1210 leukemia ip in BDF1 mice, survival T/C
# Test: NCI In Vivo Anticancer Drug Screen. Data for tumor model L1210 Leukemia (intraperitoneal) in B6D2F1 (BDF1) mice
# Conditions: endpoint: mean survival time, higher = longer survival
# How it was run: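 Tumor was transplanted into mice, which were then dosed with test compound or vehicle alone. Survival was recorded for each group, and the treated figure was expressed relative to the control figure.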
# [1] = dose: 100.0 mg/kg/injection, schedule: Q04DX002 (ip), vehicle: saline with Tween-80
# [2] = dose: 200.0 mg/kg/injection, schedule: Q04DX002 (ip), vehicle: saline with Tween-80
# [3] = dose: 400.0 mg/kg/injection, schedule: Q04DX002 (ip), vehicle: saline with Tween-80
smiles,measurement,setting,value
CS(=O)(=O)CC1OC(n2nnc3c(N)ncnc32)C(O)C1O (stereo not given),T/C,"dose: 50.0 mg/kg/injection, schedule: Q01DX001 (ip), vehicle: saline with Tween-80",94 % of control
same,T/C,"dose: 100.0 mg/kg/injection, schedule: Q01DX001 (ip), vehicle: saline with Tween-80",102 % of control
same,T/C,"dose: 200.0 mg/kg/injection, schedule: Q01DX001 (ip), vehicle: saline with Tween-80",94 % of control
O=C(CBr)N=c1cc(-c2ccc(Cl)cc2)ss1,T/C,"dose: 100.0 mg/kg/injection, schedule: Q04DX003 (ip), vehicle: saline",95 % of control
same,T/C,"dose: 200.0 mg/kg/injection, schedule: Q04DX003 (ip), vehicle: saline",91 % of control
same,T/C,"dose: 400.0 mg/kg/injection, schedule: Q04DX003 (ip), vehicle: saline",101 % of control
O=NN(CCCl)C(=O)Nc1cccc(O)c1,T/C,"dose: 4.5 mg/kg/injection, schedule: Q01DX009 (ip), vehicle: other",123 % of control
same,T/C,"dose: 7.0 mg/kg/injection, schedule: Q01DX009 (ip), vehicle: other",176 % of control
same,T/C,"dose: 11.0 mg/kg/injection, schedule: Q01DX009 (ip), vehicle: other",155 % of control
same,T/C,"dose: 17.0 mg/kg/injection, schedule: Q01DX009 (ip), vehicle: carboxymethylcellulose (CMC)",170 % of control
same,T/C,"dose: 17.0 mg/kg/injection, schedule: Q01DX009 (ip), vehicle: other",154 % of control
same,T/C,"dose: 26.0 mg/kg/injection, schedule: Q01DX009 (ip), vehicle: carboxymethylcellulose (CMC)",210 % of control
same,T/C,"dose: 26.0 mg/kg/injection, schedule: Q01DX009 (ip), vehicle: other",184 % of control
same,T/C,"dose: 30.0 mg/kg/injection, schedule: Q01DX001 (ip), vehicle: carboxymethylcellulose (CMC)",154 % of control
same,T/C,"dose: 40.0 mg/kg/injection, schedule: Q01DX009 (ip), vehicle: carboxymethylcellulose (CMC)",156 % of control
same,T/C,"dose: 40.0 mg/kg/injection, schedule: Q01DX009 (ip), vehicle: other",170 % of control
same,T/C,"dose: 60.0 mg/kg/injection, schedule: Q01DX001 (ip), vehicle: carboxymethylcellulose (CMC)",154 % of control and 168 % of control
same,T/C,"dose: 60.0 mg/kg/injection, schedule: Q01DX009 (ip), vehicle: other",121 % of control
same,T/C,"dose: 75.0 mg/kg/injection, schedule: Q01DX001 (ip), vehicle: carboxymethylcellulose (CMC)",118 % of control
CCC(/C=C1\Sc2ccc(C)cc2N1CC)=C\c1sc2ccc(OC)cc2[n+]1CC,T/C,"dose: 2.0 mg/kg/injection, schedule: Q01DX001 (ip), vehicle: other",106 % of control
same,T/C,"dose: 4.0 mg/kg/injection, schedule: Q01DX001 (ip), vehicle: other",105 % of control
C/C=C/C(O)(C(=O)OCC)C1CCCCC1 (stereo not given),T/C,"dose: 100.0 mg/kg/injection, schedule: Q01DX001 (ip), vehicle: other",107 % of control
same,T/C,"dose: 200.0 mg/kg/injection, schedule: Q01DX001 (ip), vehicle: other",98 % of control
same,T/C,"dose: 400.0 mg/kg/injection, schedule: Q01DX001 (ip), vehicle: other",102 % of control
CCC(C)(C)ON=O,T/C,[1],107 % of control
same,T/C,[2],100 % of control
same,T/C,[3],96 % of control
C[C@]1(O)CC[C@H]2[C@@H]3CCC4=CC(=O)CC[C@]4(C)[C@@]3(F)C(=O)C[C@@]21C,T/C,"dose: 100.0 mg/kg/injection, schedule: Q01DX009 (ip), vehicle: Klucel (hydroxypropylcellulose) (HPC)",101 % of control
same,T/C,"dose: 100.0 mg/kg/injection, schedule: Q04DX003 (ip), vehicle: other",92 % of control
same,T/C,"dose: 200.0 mg/kg/injection, schedule: Q01DX009 (ip), vehicle: Klucel (hydroxypropylcellulose) (HPC)",101 % of control
same,T/C,"dose: 200.0 mg/kg/injection, schedule: Q04DX003 (ip), vehicle: other",108 % of control
same,T/C,"dose: 400.0 mg/kg/injection, schedule: Q01DX009 (ip), vehicle: Klucel (hydroxypropylcellulose) (HPC)",95 % of control
same,T/C,"dose: 400.0 mg/kg/injection, schedule: Q04DX003 (ip), vehicle: other",94 % of control
CCCCOCCCNC(F)(F)C(=O)Nc1ccc(S(=O)(=O)c2ccc(NC(=O)C(F)(F)NCCCOCCCC)cc2)cc1,T/C,"dose: 100.0 mg/kg/injection, schedule: Q01DX001 (ip), vehicle: saline",113 % of control
same,T/C,"dose: 200.0 mg/kg/injection, schedule: Q01DX001 (ip), vehicle: saline",97 % of control
same,T/C,"dose: 400.0 mg/kg/injection, schedule: Q01DX001 (ip), vehicle: saline",94 % of control
CC(C)(C)NC#SNC(C)(C)C,T/C,[1],100 % of control
same,T/C,[2],92 % of control
same,T/C,[3],92 % of control
CCOCCOCCOC(C)Oc1cc(OC)ccc1OC (stereo not given),T/C,"dose: 100.0 mg/kg/injection, schedule: Q04DX002 (ip), vehicle: saline",107 % of control
same,T/C,"dose: 200.0 mg/kg/injection, schedule: Q04DX002 (ip), vehicle: saline",93 % of control
same,T/C,"dose: 400.0 mg/kg/injection, schedule: Q04DX002 (ip), vehicle: saline",101 % of control
CCCCCCCCCC(=O)c1nc(N)nc(N)n1,T/C,"dose: 50.0 mg/kg/injection, schedule: Q01DX009 (ip), vehicle: saline with Tween-80",105 % of control
same,T/C,"dose: 100.0 mg/kg/injection, schedule: Q01DX009 (ip), vehicle: saline with Tween-80",105 % of control
same,T/C,"dose: 200.0 mg/kg/injection, schedule: Q01DX009 (ip), vehicle: saline with Tween-80",97 % of control
